The target in one assay is T1, ODC of P. aeruginosa (Pseudomonas aeruginosa, UniProt Q9HVQ3).
T1 sequence (Q9HVQ3 1-387): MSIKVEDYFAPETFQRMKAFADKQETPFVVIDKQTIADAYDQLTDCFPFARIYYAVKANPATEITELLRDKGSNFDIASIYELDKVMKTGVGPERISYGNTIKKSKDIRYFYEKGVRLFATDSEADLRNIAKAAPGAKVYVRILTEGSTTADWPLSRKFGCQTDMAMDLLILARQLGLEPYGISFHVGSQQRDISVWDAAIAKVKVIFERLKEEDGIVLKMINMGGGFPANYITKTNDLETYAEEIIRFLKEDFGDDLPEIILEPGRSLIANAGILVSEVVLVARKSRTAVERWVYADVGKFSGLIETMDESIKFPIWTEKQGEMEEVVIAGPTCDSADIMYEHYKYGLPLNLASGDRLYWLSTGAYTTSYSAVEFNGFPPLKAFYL
Put plainly: ODC inhibition in intact P. aeruginosa cells. The format is cell-based. Conditions: in words. An excerpt: However, by itself, α-MFMO has no effect on cell growth. Thus, […] inhibitory activity is useful only when used in combination with agents which will block other routes of polyamine biosynthesis, e.g. with both (a) α-difluoromethyl arginine, which inhibits arginine decarboxylase, and (b) dicyclohexylammonium sulfate, which inhibits spermidine synthesis.

The subject of another assay is prostatic growth in rats. Put plainly: effect on prostatic growth in rats. The format is in vivo. The settings on record: for % Weight loss of prostate: oral administration for 3 days. The source says: Accordingly, the compounds of Formula I can be used as contragestational agents (abortifacients) in female animals when it is desired to terminate early pregnancy. The use of 2-fluoromethyl-2,5-diaminopentanoic acid, and derivatives thereof, as a contragestational agent is described and claimed in U.S. Pat. No. 4,309,442 of P. Bey and M. Jung. […] Danzin et al., Biochem. J., 202, 175 (1982). Accordingly, the compounds of Formula I can be used to treat benign prostatic hypertrophy. The use of 2-fluoromethyl-2,5-diaminopentanoic acid, and derivatives thereof, in the treatment of benign prostatic hypertrophy is described and claimed in the U.S. Pat. No. 4,330,559 of P. Bey and M. Jung.
2-Fluoromethyl-2,5-diaminopentanoic acid was tested for its effect on prostatic growth in rats according to the procedure of C. Danzin et al., Biochem. J., 202, 175 (1982).
(a) Administered dissolved in drinking water employed as only water source for the animals.

Assay [1] concerns the target T2, rat liver ornithine decarboxylase (Rattus norvegicus, UniProt P09057).
T2 construct: rat liver ornithine decarboxylase in vitro; from tissue; host or cells: rat liver
T2 sequence (P09057 1-461): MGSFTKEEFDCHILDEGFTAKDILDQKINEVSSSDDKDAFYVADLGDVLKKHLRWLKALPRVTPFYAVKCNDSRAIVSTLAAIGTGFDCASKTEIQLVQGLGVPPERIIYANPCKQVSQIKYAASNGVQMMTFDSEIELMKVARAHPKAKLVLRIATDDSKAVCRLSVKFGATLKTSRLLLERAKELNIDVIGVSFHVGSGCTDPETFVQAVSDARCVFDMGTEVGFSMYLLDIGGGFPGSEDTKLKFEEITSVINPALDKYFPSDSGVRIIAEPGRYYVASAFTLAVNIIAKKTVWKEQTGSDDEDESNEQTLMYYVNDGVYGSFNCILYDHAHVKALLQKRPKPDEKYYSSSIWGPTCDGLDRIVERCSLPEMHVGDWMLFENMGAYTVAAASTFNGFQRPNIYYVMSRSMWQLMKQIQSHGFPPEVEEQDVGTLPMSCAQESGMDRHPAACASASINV
Put plainly: time-dependent inhibition of rat liver ODC (in vitro). The format is biochemical.

On to `NCCCC(N)(CF)C(=O)O` (centres unmarked) [MFMO, 2-Fluoromethyl-2,5-diaminopentanoic acid], for which, on ODC of P. aeruginosa, the “inhibition of ODC of P. aeruginosa in intact cells” value is given as “inhibit”. Further, the results for the “% Weight loss of prostate” value in the assay with prostatic growth in rats (3.75 g/l in drinking water), in the assay with prostatic growth in rats (7.5 g/l in drinking water) and in the assay with prostatic growth in rats (15 g/l in drinking water) were -10%, -14% and -19%, respectively. The “weight of the ventral prostate” value with prostatic growth in rats (rats, method of Danzin) is listed as “significant decrease”. In assay [1] (concentration of compound which gives half-maximal rate of inhibition, time-dependent inhibition), the Ki is 75 µM. Moreover, the “t1/2 at 10 μM” value in assay [1] (half-life of inhibition at 10 μM inhibitor) was found to be 14 min. Further, the T1/2 in assay [1] (half-life of inhibition at infinite concentration of inhibitor) is 1.6 min.

Values taken from US4866206A, “2-Halomethyl derivatives of 2-amino acids” (Merrell Dow France et Cie, priority 1988, dated 1989).
